Experimental findings from patent US8309341B2, “2-mercaptocyclopentanecarboxylic acid compounds, a process for their preparation and pharmaceutical compositions containing them” (Les Laboratories Server, priority 2009, dated 2012) are described below.

This assay addresses T1, TAFIa (purified human TAFI activated by thrombin-thrombomodulin complex) (Homo sapiens, UniProt Q96IY4).
T1 construct: purchased American Diagnostica TAFI Activity Kit (catalogue number not given)
T1 sequence (Q96IY4 115-423): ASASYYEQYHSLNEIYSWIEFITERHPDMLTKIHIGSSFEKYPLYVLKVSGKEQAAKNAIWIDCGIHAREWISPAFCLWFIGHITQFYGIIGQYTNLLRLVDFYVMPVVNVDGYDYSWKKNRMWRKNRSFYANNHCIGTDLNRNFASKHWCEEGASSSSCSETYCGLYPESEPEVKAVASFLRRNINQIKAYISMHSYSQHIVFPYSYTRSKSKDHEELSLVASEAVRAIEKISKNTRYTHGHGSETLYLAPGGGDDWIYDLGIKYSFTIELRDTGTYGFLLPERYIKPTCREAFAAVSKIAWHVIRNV
Description: Inhibition of TAFIa (chromogenic substrate, TAFI Activity Kit). The class given is biochemical. Particulars: 3.2 nM TAFIa; compound incubated 5 minutes at 20° C., chromogenic substrate 30 minutes at 37° C., OD at 490 nm; read-out: IC50 (concentration which inhibits 50% of the enzymatic activity of TAFIa). The method, then:
Purified human TAFI (25 ng) is activated by adding thrombin-thrombomodulin complex in the presence of calcium chloride. After incubating for 20 minutes at 20° C., the reaction is stopped by adding the irreversible thrombin inhibitor PPACK (TAFI Activity Kit, American Diagnostica).
The compound under test is added to the (3.2 nM) TAFIa solution and incubated for 5 minutes at 20° C. A chromogenic TAFIa substrate is added and then incubated for 30 minutes at 37° C. The enzymatic reaction is stopped by adding sulphuric acid (TAFI Activity Kit, American Diagnostica). The optical density (OD) of the solution is measured at 490 nm with the aid of a spectrophotometer (Spectramax, Molecular Devices). The OD value of a well containing the reagents without the TAFI is subtracted from each of the OD values measured. The percentage inhibition of TAFIa at a given concentration of the compound under test is determined using the following formula: % inhibition=100−[(OD of compound×100)/OD of carrier]
The concentration of compound of the invention which inhibits 50% of the enzymatic activity of TAFIa (IC50) is calculated from the inhibition percentages of the OD values measured for increasing concentrations of the compound under test using non-linear regression according to a sigmoidal four-parameter equation (effect-dose).

Where a name gives a salt, the structure may show the parent alone.

As for `NCCCC1(C(=O)O)CCCC1S` (single isomer, unassigned) [Example 6, 1-(3-Aminopropyl)-2-mercaptocyclopentanecarboxylic acid trifluoroacetate (racemic cis diastereoisomer)], the IC50 worked out at 14 ± 2 nM.

With `NCCCCC1(C(=O)O)CCCC1S` (single isomer, unassigned) [Example 8, 1-(4-Aminobutyl)-2-mercaptocyclopentanecarboxylic acid trifluoroacetate (racemic cis diastereoisomer)], the IC50 was 178 ± 11 nM.

For `O=C(O)[C@@]1(CC2CCNCC2)CCC[C@H]1S` (single isomer, unassigned) [Example 13, 2-Mercapto-1-(piperidin-4-ylmethyl)-cyclopentanecarboxylic acid trifluoroacetate (racemic cis diastereoisomer)], the IC50 was 184 ± 22 nM.

Take `NCCCC[C@]1(C(=O)O)CCC[C@H]1S` (single isomer, unassigned; enantiomer 2) [Example 10, 1-(4-Aminobutyl)-2-mercaptocyclopentanecarboxylic acid trifluoroacetate (cis diastereoisomer, enantiomer 2)]: the IC50 came out at 81 ± 16 nM.

`NCCC[C@@]1(C(=O)O)CCC[C@@H]1S` [Example 1, (1R,2S)-1-(3-Aminopropyl)-2-mercaptocyclopentanecarboxylic acid trifluoroacetate]: the IC50 was found to be 6.7 ± 0.6 nM.

Consider `CC(=O)S[C@H]1CCC[C@@]1(CCCN)C(=O)O` [Example 2, (1R,2S)-2-Acetylthio-1-(3-aminopropyl)-cyclopentanecarboxylic acid hydrochloride], for which the IC50 was determined as 22 ± 6 nM.

With `NCCC[C@@]1(C(=O)O)CCC[C@@H]1S` [Example 3, (1R,2S)-1-(3-Aminopropyl)-2-mercaptocyclopentanecarboxylic acid hydrochloride], the IC50 came out at 7.4 ± 1.1 nM.

Consider `NCCC[C@@]1(C(=O)O)CCC[C@@H]1SS[C@H]1CCC[C@@]1(CCCN)C(=O)O` [Example 20, (1R,2S,1′R,2′S)-2,2′-Disulphanediylbis[1-(3-aminopropyl)cyclopentane-carboxylic acid]dihydrochloride], for which the IC50 was 186 ± 26 nM.
